In the supplement of paper PMC10307832:

Tests used:
Test in all cases: relative viability (nuclei count vs DMSO), 5 days (fraction); higher = more cells survive
NCI-H322M = test system: NCI-H322M
Outline: (§1)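 A single step with final 0.05% Triton X-100, 1% formaldehyde and 1 ug/ml Hoechst fixed the cells and stained nuclei 5 days after treatment. Lung cancer cell lines in 1536-well plates had been treated by pin tool the day after seeding with one drug alone or a fixed anchor-drug dose plus five library-drug doses (not always all listed) in √10 steps, and nuclei were counted on 4× images. Relative viability is the ratio of nuclei in treated wells to nuclei in vehicle wells, taken as the median of duplicate plates.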

NCI-H2347 = test system: NCI-H2347
Outline: as §1

NCI-H727 = test system: NCI-H727
Outline: as §1

NCI-H2085 = test system: NCI-H2085
Outline: as §1

NCI-H647 = test system: NCI-H647
Outline: as §1

NCI-H2009 = test system: NCI-H2009
Outline: as §1

NCI-H1650 = test system: NCI-H1650
Outline: as §1

NCI-H2126 = test system: NCI-H2126
Outline: as §1

NCI-H1993 = test system: NCI-H1993
Outline: as §1

SW 1573 = test system: SW 1573
Outline: as §1

NCI-H661 = test system: NCI-H661
Outline: as §1

SK-LU-1 = test system: SK-LU-1
Outline: as §1

NCI-H1915 = test system: NCI-H1915
Outline: as §1

HOP-62 = test system: HOP-62
Outline: as §1

NCI-H2023 = test system: NCI-H2023
Outline: as §1

EMC-BAC-2 = test system: EMC-BAC-2
Outline: as §1

NCI-H2342 = test system: NCI-H2342
Outline: as §1

PC-14 = test system: PC-14
Outline: as §1

LCLC-97TM1 = test system: LCLC-97TM1
Outline: as §1

LXF-289 = test system: LXF-289
Outline: as §1

H3255 = test system: H3255
Outline: as §1

EPLC-272H = test system: EPLC-272H
Outline: as §1

O=C(O)c1ccc(-c2c[nH]c3ncc(-c4ccccc4)cc23)cc1C1CCCC1 + O=C(CCCCCCC(=O)Nc1ccccc1)NO [Vorinostat] (partner 1 µM)
relative viability (NCI-H322M; first compound 0.04 µM): 0.909
relative viability (NCI-H322M; first compound 0.1265 µM): 0.858
relative viability (NCI-H322M; first compound 0.4 µM): 0.898
relative viability (NCI-H322M; first compound 1.265 µM): 0.855
relative viability (NCI-H2347; first compound 0.04 µM): 0.576
relative viability (NCI-H2347; first compound 0.1265 µM): 0.773
relative viability (NCI-H2347; first compound 0.4 µM): 0.597
relative viability (NCI-H2347; first compound 1.265 µM): 0.46
relative viability (NCI-H727; first compound 0.04 µM): 0.991
relative viability (NCI-H727; first compound 0.1265 µM): 1.19
relative viability (NCI-H727; first compound 0.4 µM): 1.31
relative viability (NCI-H727; first compound 1.265 µM): 1.18
relative viability (NCI-H2085; first compound 0.04 µM): 0.793
relative viability (NCI-H2085; first compound 0.1265 µM): 0.857
relative viability (NCI-H2085; first compound 0.4 µM): 0.779
relative viability (NCI-H2085; first compound 1.265 µM): 0.642
relative viability (NCI-H647; first compound 0.04 µM): 0.645
relative viability (NCI-H647; first compound 0.1265 µM): 0.47
relative viability (NCI-H647; first compound 0.4 µM): 0.491
relative viability (NCI-H647; first compound 1.265 µM): 0.361
relative viability (NCI-H2009; first compound 0.04 µM): 0.719
relative viability (NCI-H2009; first compound 0.1265 µM): 0.733
relative viability (NCI-H2009; first compound 0.4 µM): 0.744
relative viability (NCI-H2009; first compound 1.265 µM): 0.635
relative viability (NCI-H1650; first compound 0.04 µM): 0.418
relative viability (NCI-H1650; first compound 0.1265 µM): 0.513
relative viability (NCI-H1650; first compound 0.4 µM): 0.538
relative viability (NCI-H1650; first compound 1.265 µM): 0.476
relative viability (NCI-H2126; first compound 0.04 µM): 0.823
relative viability (NCI-H2126; first compound 0.1265 µM): 0.755
relative viability (NCI-H2126; first compound 0.4 µM): 0.786
relative viability (NCI-H2126; first compound 1.265 µM): 0.616
relative viability (NCI-H1993; first compound 0.04 µM): 0.908
relative viability (NCI-H1993; first compound 0.1265 µM): 1.07
relative viability (NCI-H1993; first compound 0.4 µM): 0.725
relative viability (NCI-H1993; first compound 1.265 µM): 0.311
relative viability (SW 1573; first compound 0.04 µM): 0.949
relative viability (SW 1573; first compound 0.1265 µM): 0.878
relative viability (SW 1573; first compound 0.4 µM): 0.699
relative viability (SW 1573; first compound 1.265 µM): 0.656
relative viability (NCI-H661; first compound 0.04 µM): 0.766
relative viability (NCI-H661; first compound 0.1265 µM): 0.763
relative viability (NCI-H661; first compound 0.4 µM): 0.787
relative viability (NCI-H661; first compound 1.265 µM): 0.787
relative viability (SK-LU-1; first compound 0.04 µM): 0.793
relative viability (SK-LU-1; first compound 0.1265 µM): 0.717
relative viability (SK-LU-1; first compound 0.4 µM): 0.684
relative viability (SK-LU-1; first compound 1.265 µM): 0.364
relative viability (NCI-H1915; first compound 0.04 µM): 0.532
relative viability (NCI-H1915; first compound 0.1265 µM): 0.525
relative viability (NCI-H1915; first compound 0.4 µM): 0.501
relative viability (NCI-H1915; first compound 1.265 µM): 0.479
relative viability (HOP-62; first compound 0.04 µM): 0.694
relative viability (HOP-62; first compound 0.1265 µM): 0.606
relative viability (HOP-62; first compound 0.4 µM): 0.594
relative viability (HOP-62; first compound 1.265 µM): 0.48
relative viability (NCI-H2023; first compound 0.04 µM): 0.825
relative viability (NCI-H2023; first compound 0.1265 µM): 0.967
relative viability (NCI-H2023; first compound 0.4 µM): 0.523
relative viability (NCI-H2023; first compound 1.265 µM): 0.507
relative viability (EMC-BAC-2; first compound 0.04 µM): 0.421
relative viability (EMC-BAC-2; first compound 0.1265 µM): 0.575
relative viability (EMC-BAC-2; first compound 0.4 µM): 0.449
relative viability (EMC-BAC-2; first compound 1.265 µM): 0.391
relative viability (NCI-H2342; first compound 0.04 µM): 0.783
relative viability (NCI-H2342; first compound 0.1265 µM): 0.762
relative viability (NCI-H2342; first compound 0.4 µM): 0.818
relative viability (NCI-H2342; first compound 1.265 µM): 0.874
relative viability (PC-14; first compound 0.04 µM): 0.733
relative viability (PC-14; first compound 0.1265 µM): 0.781
relative viability (PC-14; first compound 0.4 µM): 0.786
relative viability (PC-14; first compound 1.265 µM): 0.723
relative viability (LCLC-97TM1; first compound 0.04 µM): 0.876
relative viability (LCLC-97TM1; first compound 0.1265 µM): 0.94
relative viability (LCLC-97TM1; first compound 0.4 µM): 0.747
relative viability (LCLC-97TM1; first compound 1.265 µM): 0.525
relative viability (LXF-289; first compound 0.04 µM): 0.769
relative viability (LXF-289; first compound 0.1265 µM): 0.773
relative viability (LXF-289; first compound 0.4 µM): 0.632
relative viability (LXF-289; first compound 1.265 µM): 0.398
relative viability (H3255; first compound 0.04 µM): 0.872
relative viability (H3255; first compound 0.1265 µM): 0.795
relative viability (H3255; first compound 0.4 µM): 0.83
relative viability (H3255; first compound 1.265 µM): 0.791
relative viability (EPLC-272H; first compound 0.04 µM): 0.503
relative viability (EPLC-272H; first compound 0.1265 µM): 0.654
relative viability (EPLC-272H; first compound 0.4 µM): 0.483
relative viability (EPLC-272H; first compound 1.265 µM): 0.261
